Like-named read-outs stand apart in the source and are kept apart here.
Tests used:
HCV genotype 1a replicon = test: HCV replicon assay, genotype 1a (cell ELISA for NS3/4A); type: cell-based, hepatitis C virus
Procedure: (§1) Measurement of inhibition by compounds was performed using the HCV replicon system. Several different replicons encoding different HCV genotypes or mutations were used. In addition, potency measurements were made using different formats of the replicon assay, including different ways of measurements and different plating formats. See Jan M. Vrolijk et al., A replicons-based bioassay for the measurement of interferons in patients with chronic hepatitis C, 110 J. VIROLOGICAL METHODS 201 (2003); Steven S. Carroll et al., Inhibition of Hepatitis C Virus RNA Replication by 2′-Modified Nucleoside Analogs, 278 (14) J. BIOLOGICAL CHEMISTRY 11979 (2003). However, the underlying principles are common to all of these determinations, and are outlined below.
(§2) Stable neomycin phosphotransferase encoding replicons-harboring cell lines were used, so all cell lines were maintained under G418 selection prior to the assay. Potency was deteremined using a cell ELISA assay with an antibody to the replicons encoded NS3/4a protease. See Caterina Trozzi et al., In Vitro Selection and Characterization of Hepatitis C Virus Serine Protease Variants Resistant to an Active-Site Peptide Inhibitor, 77 (6) J. Virol. 3669 (2003). To initiate an assay, replicon cells were plated in the presence of a dilution series of test compound in the absence of G418. Typically, the assays were performed in a 96-well plate formate for manual operation, or a 384-well plate format for automated assay. Replicon cells and compound were incubated for 96 hours. At the end of the assay, cells were washed free of media and compound, and the cells were then lysed. RNA was quantified indirectly through detection of replicon-encoded NS3/4A protein levels, through an ELISA-based assay with an antibody specific for NS3/4A. IC50 determinations were calculated as a percentage of a DMSO control by fitting the data to a four-parameter fit function and the data obtained for genotypes 1a and 1b using this method is provided in the table below.

HCV genotype 1b replicon = test: HCV replicon assay, genotype 1b (cell ELISA for NS3/4A); type: cell-based, hepatitis C virus
Procedure: as §1, §2

[1] = Hepatitis C virus, 96 h, read-out: 1a IC50 (nM), genotype 1a replicon cells, 96 hours incubation, NS3/4A ELISA
[2] = Hepatitis C virus, 96 h, read-out: 1b IC50 (nM), genotype 1b replicon cells, 96 hours incubation, NS3/4A ELISA
[3] = read-out: 1a IC50, genotype 1a replicon cells, 96 hours incubation, NS3/4A ELISA
[4] = read-out: 1b IC50, genotype 1b replicon cells, 96 hours incubation, NS3/4A ELISA

Work on `CNC(=O)c1c(-c2ccc(F)cc2)oc2cc(N(C)S(C)(=O)=O)c(-c3cc4c(nn3)CCn3c-4cc4c(F)cccc43)cc12` [Example 48, 5-(11-fluoro-5,6-dihydropyridazino[4′,3′:3,4]pyrido[1,2-a]indol-2-yl)-2-(4-fluorophenyl)-N-methyl-6-(N-methylmethylsulfonamido)benzofuran-3-carboxamide] yielded an IC50 (HCV genotype 1a replicon; [1]) of 1.72 nM and an IC50 (HCV genotype 1b replicon; [2]) of 2.64 nM.

Compound `CNC(=O)c1c(-c2ccc(F)cc2)oc2cc(N(C)S(C)(=O)=O)c(-c3ccc4c(n3)-c3cc5c(F)cccc5n3C(CO)C4)cc12` (stereo not shown) [Example 52] has an IC50 (HCV genotype 1a replicon; [3]) of 3.35 nM and an IC50 (HCV genotype 1b replicon; [2]) of 2.32 nM.

For `CNC(=O)c1c(-c2ccc(F)cc2)oc2cc(N(C)S(C)(=O)=O)c(-c3ccc4c(n3)-c3cc5c(F)cccc5n3C(CO)C4)cc12` (stereo not shown) [Example 53], the IC50 (HCV genotype 1a replicon; [3]) was 8.07 nM and the IC50 (HCV genotype 1b replicon; [4]) was 4.03 nM.

`CNC(=O)c1c(-c2ccc(F)cc2)oc2cc(N(C)S(C)(=O)=O)c(-c3ccc4c(n3)-c3cc5c(F)cccc5n3C(CO)C4)cc12` (stereo not shown) [Example 54] was tested, and the IC50 (HCV genotype 1a replicon; [3]) was 1.56 nM and the IC50 (HCV genotype 1b replicon; [4]) was 2.25 nM.

Compound `CNC(=O)c1c(-c2ccc(F)cc2)oc2cc(N(C)S(C)(=O)=O)c(-c3ccc4c(n3)-c3cc5c(F)cccc5n3C4CO)cc12` (stereo not shown) [Example 55] has an IC50 (HCV genotype 1a replicon; [1]) of 0.971 nM and an IC50 (HCV genotype 1b replicon; [2]) of 1.81 nM.

With `CNC(=O)c1c(-c2ccc(F)cc2F)oc2cc(N(C)S(C)(=O)=O)c(-c3ccc4c(n3)-c3cc5c(F)cccc5n3C(CS(C)(=O)=O)C4)cc12` (stereo not shown) [Example 58] the IC50 (HCV genotype 1a replicon; [3]) was 1.52 nM and the IC50 (HCV genotype 1b replicon; [2]) was 1.71 nM.

In the case of `CNC(=O)c1c(-c2ccc(F)cc2F)oc2cc(N(C)S(C)(=O)=O)c(-c3ccc4c(n3)-c3cc5c(F)cccc5n3C(CS(C)(=O)=O)C4)cc12` (stereo not shown) [Example 59], the IC50 (HCV genotype 1a replicon; [3]) is reported as 5.45 nM and the IC50 (HCV genotype 1b replicon; [4]) is reported as 2.9 nM.

In the case of `CNC(=O)c1c(-c2ccc(F)cc2)oc2cc(N(C)S(C)(=O)=O)c(-c3ccc4c(n3)-c3cc5c(F)cccc5n3CC4C)cc12` (stereo not shown) [Example 62], the IC50 (HCV genotype 1a replicon; [1]) is reported as 2.69 nM and the IC50 (HCV genotype 1b replicon; [2]) is reported as 2.55 nM.

Compound `CNC(=O)c1c(-c2ccc(F)cc2)oc2cc(N(C)S(C)(=O)=O)c(-c3ncc4c(n3)-c3cc5c(F)cccc5n3CC4)cc12` [Example 63, 5-(11-fluoro-5,6-dihydropyrimido[4′,5′:3,4]pyrido[1,2-a]indol-2-yl)-2-(4-fluorophenyl)-N-methyl-6-(N-methylmethylsulfonamido)benzofuran-3-carboxamide] has an IC50 (HCV genotype 1a replicon; [1]) of 4.34 nM and an IC50 (HCV genotype 1b replicon; [2]) of 3.28 nM.

`CNC(=O)c1c(-c2ccc(F)cc2)oc2cc(N(C)S(C)(=O)=O)c(-c3cc4c(cn3)CC(C)(C)n3c-4cc4c(F)cccc43)cc12` [Example 64, 5-(11-fluoro-6,6-dimethyl-5,6-dihydroindolo[2,1-a][2,6]naphthyridin-2-yl)-2-(4-fluorophenyl)-N-methyl-6-(N-methylmethylsulfonamido)benzofuran-3-carboxamide] was tested, and the IC50 (HCV genotype 1a replicon; [1]) was 23.2 nM and the IC50 (HCV genotype 1b replicon; [2]) was 9.09 nM.

For `CNC(=O)c1c(-c2ccc(F)cc2)oc2cc(N(C)S(C)(=O)=O)c(-c3ccc4c(n3)-c3cc5c(F)cccc5n3C(CCO)C4)cc12` (stereo not shown) [Example 65, 5-(11-fluoro-6-(2-hydroxyethyl)-5,6-dihydroindolo[1,2-h][1,7]naphthyridin-2-yl)-2-(4-fluorophenyl)-N-methyl-6-(N-methylmethylsulfonamido)benzofuran-3-carboxamide], the IC50 (HCV genotype 1a replicon; [1]) was 3.62 nM and the IC50 (HCV genotype 1b replicon; [2]) was 3.96 nM.

For `CNC(=O)c1c(-c2ccc(C)nc2)oc2cc(N(C)S(C)(=O)=O)c(-c3ccc4c(n3)-c3cc5c(F)cccc5n3C(CCN3CC(F)C3)C4)cc12` (stereo not shown) [Example 66, 5-(11-fluoro-6-(2-(3-fluoroazetidin-1-yl)ethyl)-5,6-dihydroindolo[1,2-h][1,7]naphthyridin-2-yl)-N-methyl-6-(N-methylmethylsulfonamido)-2-(6-methylpyridin-3-yl)benzofuran-3-carboxamide], the IC50 (HCV genotype 1a replicon; [3]) was 13 nM and the IC50 (HCV genotype 1b replicon; [4]) was 11.4 nM.

`CNC(=O)c1c(-c2ccc(C)nc2)oc2cc(N(C)S(C)(=O)=O)c(-c3ccc4c(n3)-c3cc5c(F)cccc5n3C(CCN3CC(F)C3)C4)cc12` (stereo not shown) [Example 67] showed an IC50 (HCV genotype 1a replicon; [3]) of 12.5 nM and an IC50 (HCV genotype 1b replicon; [4]) of 16.4 nM.

`CNC(=O)c1c(-c2ccc(C)nc2)oc2cc(N(C)S(C)(=O)=O)c(-c3ccc4c(n3)-c3cc5c(F)cccc5n3C(CCN3CC(F)C3)C4)cc12` (stereo not shown) [Example 68] showed an IC50 (HCV genotype 1a replicon; [3]) of 70.9 nM and an IC50 (HCV genotype 1b replicon; [4]) of 60.6 nM.
